Experimental findings from patent US20230121926A1, “METHODS FOR TISSUE REGENERATION AND KITS THEREFOR” (THE BOARD OF TRUSTEES OF THE LELAND STANFORD JUNIOR …, priority 2020, published 2023) are described below.

Data set [1] is described as follows: Dose of VS-6062 delivered to porcine fresh wounds (tissue level by wound depth). The format is in vivo, red Duroc pigs. On the procedure: Porcine deep partial-thickness excisional wound model: Prior to operation, animals were administered oral amoxicillin 10 mg/kg for 24 hours. General anesthesia was administered by Veterinary Services personnel and was established with intramuscular telazol 6-8 mg/kg, administered once as a pre-anesthetic. Animals were then intubated using an endotracheal tube and maintained on 1.5-3% of inhaled isoflurane throughout the procedure. The hair on the back was clipped and skin was cleansed initially with Betadine© solution following by a 70% alcohol rinse. Excisional wounds were created with a standard electric Zimmer dermatome (Zimmer Biomet, Warsaw, Ind.). Up to eight wounds, approximately 5 cm×5 cm in size, were created on each lateral flank, with 3-5 cm intervals between wounds (FIG. 1A). Multiple dermatome passes were performed to create deep partial-thickness wounds of uniform 0.07 inch depth. The wounds were randomly assigned to receive either FAKI hydrogel (W_IF), blank hydrogel (‘placebo’, W_H), or no hydrogel (wounded control, W) (n=6-9 wounds per condition). […] In a time-dependent study, the amount of VS-6062 detected at approximately 0.5 mm wound depth over 24 hours ranged from 30-100 microG/g tissue by weight. The amount of VS-6062 detected beyond 1 mm wound depth was less than 5 microG/g tissue.

The subject of the next data set is human dermal fibroblasts. Kind of data set: scRNA-seq of strained human dermal fibroblasts in 3D collagen scaffolds. The format is cell-based. The text has this:
Using this experimental system, in vivo dermal strain patterns were mimicked, imposing biaxial strain upon the fibroblasts, while also attenuating mechanotransduction in a subset of samples. The collagen scaffolds were enzymatically digested to obtain cellular suspensions of fibroblasts, which were then processed for scRNA-seq, as shown in FIGS. 2A and 2C. All single cell data were initially analyzed in a manner blinded to phenotype of origin. Following log-normalization, pooled data were subjected to semi-supervised Louvain-based clustering and embedded into UMAP-space (Seurat). Eight transcriptionally distinct subpopulations (cluster 0 to cluster 7) were identified among cells from the pooled data superset, as shown in FIG. 2D. When unblinded, considerable permissiveness among clusters were found across both phenotypes and biological replicates, consistent with the known heterogeneity among human dermal fibroblasts (FIG. 2D).
Fibroblast-populated 3D collagen scaffold experiments. Dermal fibroblasts were isolated from both porcine and human skin samples and cultured separately. Porcine skin was obtained from the unwounded (normal skin) areas of a euthanized red duroc pig. Human skin samples were obtained under the approved IRB (#54225) and collected from three surgical procedures; a breast mastectomy, an abdominoplasty, and a thighplasty (n=3 patients). Fibroblasts were isolated by mechanical and enzymatic digestion and cultured under standard conditions until passage 3. The primary fibroblast cultures were then used to create fibroblast-populated collagen hydrogels at final concentration of 200 k cells/mL and 2 mg/mL collagen (PureCol, Advanced Biomatrix, San Diego, Calif.), following protocols as described in Chen, K. et al, “Role of boundary conditions in determining cell alignment in response to stretch”, PNAS 115, 986-991, doi:10.1073/pnas.1715059115 (2018), the entire disclosure of which is hereby incorporated by reference in its entirety. In brief, collagen scaffolds were formulated in a cruciform shape in petri dishes with a PDMS coating (˜4 mm) on the bottom (FIG. 2B). Pins were pushed through the hydrogel cruciform arms to constrain the scaffolds in both directions for a 24h pre-culture period before being subjected to either no strain, 10% equibiaxial strain, or strain+FAKI treatment for an additional 48 hours (FIGS. 2A-2B, FIG. 9A). FAKI treatment was administered by adding 20 mM FAKI in DMSO into the culture media of the scaffolds to achieve a final concentration of 10 micromolar FAKI for 48 hours. Strain was imposed by removing the anchoring pins, manually extending the hydrogel cruciform arms, and pushing the pins back to hold the arms in the new, extended position. Nine Titanium (IV) oxide paint dots (Sigma-Aldrich) were applied on the surface of the central region of the gel (boxes in FIG. 9A) to track and quantify the imposed strains. A digital camera was used to image the markers before and after strain. Photographs of marker position were used to compute a single homogenous deformation gradient tensor F that provided the least-squares best fit mapping of the 9 marker positions from the undeformed to deformed positions by solving the overdetermined matrix equation: […]
Single cell barcoding, library preparation, and single cell RNA sequencing. After two days of increased (induction of strain) or inhibited (induction of strain+FAKI) mechanotransduction, collagen scaffolds were micro-dissected and enzymatically digested to obtain cellular suspensions of human fibroblasts for droplet-based microfluidic single cell RNA sequencing (scRNA-seq) using the 10× Chromium Single Cell platform (FIG. 2C) (Single Cell 3′ v3, 10× Genomics, USA). A droplet of the cell suspensions, reverse transcription master mix, and partitioning oil was loaded onto a single cell chip and processed on the Chromium Controller. […]

[2] abbreviates: 10% strain, 10 micromolar FAKI, 48 hours.

The structures appear in SMILES notation.

For the molecule `CN(c1ncccc1CNc1nc(Nc2ccc3c(c2)CC(=O)N3)ncc1C(F)(F)F)S(C)(=O)=O` [VS-6062], the “amount of VS-6062 detected in wound tissue” value in data set [1] (approximately 0.5 mm wound depth, over 24 hours) is 30-100 microG/g tissue by weight. Also, the “amount of VS-6062 detected in wound tissue” value in data set [1] (beyond 1 mm wound depth) is “less than 5 microG/g tissue”. Also, in the data set with human dermal fibroblasts (setting [2]), the “expression of AIMP3” value was “increased”, the “expression of MMP1” value was “increased”, the “expression of Mmp10” value is given as “significantly upregulated” and the “transcription of COL1A1” value is “strongly reduced”. In addition, the “transcription of COL3A1” value in the data set with human dermal fibroblasts (setting [2]) is “strongly reduced”. In addition, the “strain-induced pro-fibrotic, myofibroblast and mechanotransduction gene expression (ACTA2, PDGFRA, RUNX1, ZEB2, MAPK1, PI3KR1, EGFR, RAC1, YAP1)” value in the data set on human dermal fibroblasts (strained fibroblasts with FAKI) is listed as “abrogated nearly all of these fibrotic signaling changes”.
